Patent publication US10821116B2, “Administration of iloprost as aerosol bolus” (VECTURA GMBH, priority 2011, dated 2020)
“Also recorded” adds a separate entry of the source. Like-named read-outs stand apart in the source and are kept apart here.

Experiments:
[1] = cited from earlier work
[2] = system: patients with pulmonary arterial hypertension; test: Clinical pilot study of iloprost bolus inhalation (Example 3); type: in vivo, human
Procedure: A clinical pilot study to evaluate the safety and tolerability of nebulised iloprost administered by bolus inhalation according to the invention was conducted with 4 patients. Eligible were male and female patients with pulmonary arterial hypertension in the age from 18 to 70 years having a mean pulmonary arterial blood pressure (PAP) higher than 25 mm Hg, a pulmonary vascular resistance (PVR) higher than 240 dyn*s*cm^−5, a central venous pressure (CVP) higher than 3 mm Hg, and a pulmonary capillary wedge pressure (PCWP) lower than 12 mm Hg. Excluded were patients with a contraindication for cardiac catheterisation (such as coagulopathy, bleeding disorder, acute infection, severe cardiac dysrhythmia), pregnancy, systemic systolic blood pressure below 110 mm Hg, highly impaired ventricular function with cardiac index below 1.8 L/min*m^2, and known lack of pulmonary vascular reactivity. Patients were monitored by ECG, pulse oxymetry, and non-invasive blood pressure measurement. An intracardiac catheter was introduced into the distal pulmonary artery to measure PAP, CVP, PCWP, and cardiac output. Also measured were the heart rate, systemic arterial pressure (SAP), systemic vascular resistance (SVR), central arterial and venous blood gases. After the initial determination of all parameters the reactivity of the pulmonary vasculature to oxygen (2 to 4 L/min) and nitric oxide (20 ppm) was tested. Subsequently, patients inhaled a single dose of 2.5 μg of nebulised iloprost in two consecutive breaths, using the same inhalation system and iloprost composition as described in Example 1. Haemodynamic parameters and clinical condition of the patients were assessed before and up to 30 minutes after inhalation. In the absence of adverse effects, a second inhalation manoeuvre with 4 consecutive breaths corresponding to a dose 5 μg iloprost was performed, again followed by an observation period of at least 30 minutes.

[3] = system: patients suffering from pulmonary hypertension (PH); test: Iloprost bolus inhalation in six further patients (Example 4); type: in vivo, human; conditions: bolus inhalation as in Example 3
Procedure: Six further patients suffering from pulmonary hypertension (PH) were treated with iloprost bolus inhalation as in Example 3.

[4] = bolus inhalation of 2.5 μg and 5 μg, versus slow inhalation of iloprost

CC#CCC(C)[C@H](O)/C=C/[C@@H]1[C@H]2C/C(=C/CCCC(=O)O)C[C@H]2C[C@H]1O (stereo partly drawn) [iloprost, 5-{(E) -(1S,5S,6R,7R)-7-hydroxy-6[(E)-(3S, 4RS)-3-hydroxy-4-methyl-1-octen-6-inyl]-bi-cyclo[3.3.0]octan-3-ylidene}pentanoic acid]
solubility ([1]; acetone): soluble | solubility ([1]; aqueous buffer at pH 3): very slightly soluble | solubility ([1]; aqueous buffer at pH 5): very slightly soluble | solubility ([1]; aqueous buffer at pH 7): soluble | solubility ([1]; aqueous buffer pH 9): sparingly soluble | solubility ([1]; distilled water): very slightly soluble | solubility ([1]; ethanol): soluble | solubility ([1]; ethyl acetate): soluble | solubility ([1]; methanol): soluble | aqueous solubility ([1]; water): rather poor | mean pulmonary arterial pressure (PAP) after bolus inhalation versus baseline, p ([2]; FIG. 1, n=4, Mann-Whitney rank-sum test): < 0.05 | mean systemic arterial pressure (SAP) after bolus inhalation versus baseline, significance ([2]; FIG. 3, n=4, Mann-Whitney rank-sum test): not significant | systemic vascular resistance (SVR) after bolus inhalation versus baseline, significance ([2]; FIG. 4, n=4, Mann-Whitney rank-sum test): not significant | tolerability of the treatment ([2]; bolus inhalation of 2.5 μg (2 breaths) and 5 μg (4 breaths), 4 PAH patients): all patients tolerated the treatment well; also recorded: well-tolerated by patients | systemic side effects (SAP and SVR changes) [2, 4]: comparable to those observed after conventional iloprost treatment | therapeutic pulmonary vascular effects (PAP and PVR changes) [2, 4]: comparable to those observed after conventional iloprost treatment | adverse effects ([3]; six PH patients): no adverse effects were observed other than the SAP and SVR changes which were mild | pulmonary vascular effects ([3]; six PH patients (PAH, iPAH, portopulmonary, CTEPH)): very comparable to those found in Example 3
